Reference: US20240277677A1, “SALT FORM AND CRYSTAL FORM THEREOF OF SULFONYLUREA RING SUBSTITUTED COMPOUND” (priority 2022, published 2024)
Values after ≈ are worked out from the molar mass of the structure shown. Like-named read-outs stand apart in the source and are kept apart here.

Assays:
[1] = tested on: Escherichia coli ATCC 25922; assay: Antibacterial activity MIC, micro-liquid dilution method (CLSI); format: cell-based; conditions: ATCC25922, E. coli ATCC 25922
Text: Three strains of Klebsiella pneumonia, ATCC BAA-205 (TEM-1/SHV-1/SHV-12), ATCC BAA-1705 (KPC-2), ATCC BAA-2470 (NDM-1), Enterobacter cloacae ATCC BAA-1143 (AmpC), two strains of Escherichia coli ATCC BAA-2523(OXA-48), ATCC 25922 were used to determine the minimum inhibitory concentration (MIC) of each of the compounds by a micro-liquid dilution method according to the Institute of Clinical and Laboratory Standard (CLSI) requirements. A 2-fold serial dilution of the compound (final concentration ranging from 0.125 μg/ml to 128 µg/ml) was added to a round-bottom 96-well plate (Catalog #3788, Corning), fresh monoclonal bacteria were selected from an overnight cultured Mueller Hinton II Agar medium plate (MHA, Cat. No. 211438, BD BBL™) and suspended in sterile saline, the concentration was adjusted to 1×10^8 CFU/mL, and then the solution was diluted by using a cation-adjusted Hinton Mueller culture medium Cation-Adjusted Mueller Hinton II Broth (MHB, Catalog #212332, BD BBL™) to a concentration of 5×10^5 CFU/ml, and 100 μl of the solution was added to a round bottom 96-well plate containing the drugs. The plate was placed upside down at 37° C. and the MIC value was read after 20-24 h of incubation, and the lowest drug concentration that inhibited the growth of bacteria was set as MIC. For the results see Table 1. Colony-Forming Units (CFU) refers to the total number of bacterial colonies per unit volume.

[2] = Stability test of the crystal form A in different solvents (suspension 2 days, crystal form test); format: physicochemical; conditions: for Result (crystal form): 20~30° C., 2 days
[3] = tested on: Klebsiella pneumoniae ATCC-BAA 2470 (NDM+); assay: Drug efficacy in thigh muscle infection model in vivo (immunodeficient CD-1 female mice); conditions: for Average CFU of Mouse (bacterial load of thigh muscle tissue): end point 26 h
Method: 78 CD-1 female mice were divided into 26 cages, 3 mice per cage. The day of infection is counted as the 0 day.
150 mg/kg immunosuppressant cyclophosphamide was intraperitoneally injected on Day-4, and 100 mg/kg immunosuppressant cyclophosphamide was intraperitoneally injected again on Day-1 to obtain immunodeficient mice.
The strain Klebsiella pneumoniae ATCC-BAA 2470 (NDM+) was recovered on an MHA plate on Day-1. The recovered colonies were picked and dissolved in sterile saline to prepare a bacterial solution with a concentration of 5.95E+07 CFU/mL for use in mouse thigh muscle infection. The infection starting time was counted as 0 h, and 100μL of bacterial solution is injected into the thigh muscle of each mouse at 0 h, that is, the inoculation amount is 5.95E+06 CFU/mouse. 2 h after infection, the drugs were administered according to the experimental scheme. […] The mice in the 1st to 4th cage were administered at a total daily dose of 1600 mg/kg, the mice in the 5th to 8th cage were administered at a total daily dose of 480 mg/kg, the mice in the 9th to 12th cage were administered at a total daily dose of 160 mg/kg, the mice in the 13th to 16th cage were administered at a total daily dose of 48 mg/kg, the mice in the 17th to 20th cage were administered at a total daily dose of 16 mg/kg, the mice in the 21th to 24th cage were administered at a total daily dose of 4.8 mg/kg, and each dosage group was administered separately in four different dosage dividing manners, which were q3 h, q6 h, q12 h and q24 h separately. • (3) 26 h after infection: The endpoint of the experiment was at 26 h after infection, the thigh muscle tissue of the mice of the 1st to 26th cage was taken and placed in 10 mL sterile saline, the tissue was homogenized by a homogenizer, and the homogenate was dotted on a plate with gradient dilution, two duplications for each mouse. The bacterial load of the thigh muscle tissue of the mice was counted, and for the experimental results see Table 15.

[4] = Exploration of other crystal forms by changing crystallization conditions; format: physicochemical
Text: Purpose: Explore obtaining other crystal forms by changing crystallization conditions.

[5] = Pharmacokinetics study in rats in vivo, intravenous administration; parameters: species or system SD male rats; conditions: for AUC(0-t) / C0 / clearance / half-life / Vd: Sprague-Dawley (SD), rat, plasma, SD male rats, dissolved in saline; for AUC(0-t): read-out: AUC0-last Area under plasma concentration-time curve; for C0: read-out: C0 Initial concentration; for clearance: read-out: Cl Clearance rate; for half-life: read-out: T1/2 Half-life period (converted); for Vd: read-out: Vdss Apparent volume of distribution
Method: The pharmacokinetic characteristics in rodents after intravenous administration of the compound was tested with standard scheme. Specifically, SD male rats at the age of 7-10 weeks were administered intravenously with the candidate compound in the experiment. The compound was dissolved in salt water to prepare a clear solution. The plasma samples are collected and analyzed by LC-MS/MS, and the pharmacokinetic parameters were calculated.

[6] = intravenous injection at 100 mg/kg
[7] = intravenous injection at 300 mg/kg

NC[C@@H]1CN(C[C@@H]2[C@H](NC(=O)/C(=N\OC3(C(=O)O)CC3)c3csc(N)n3)C(=O)N2S(=O)O)S(=O)(=O)N1 (stereo in doubt)
MIC [1]: 0.25 µg/mL (≈ 0.441 µM)
Appearance (2 days) ([2]; Acetonitrile): Suspension
Appearance (2 days) ([2]; Acetonitrile-water(20:1)): Suspension
Appearance (2 days) ([2]; Ethanol): Suspension
Appearance (2 days) ([2]; Ethanol-water(20:1)): Suspension
Appearance (2 days) ([2]; Ethyl acetate): Suspension
Appearance (2 days) ([2]; Isopropanol): Suspension
Appearance (2 days) ([2]; Isopropanol-water(20:1)): Suspension
Appearance (2 days) ([2]; Tetrahydrofuran): Suspension
Result (crystal form) ([2]; suspended in Acetonitrile): Crystal form A
Result (crystal form) ([2]; suspended in Acetonitrile-water(20:1)): Crystal form A
Result (crystal form) ([2]; suspended in Ethanol): Crystal form A
Result (crystal form) ([2]; suspended in Ethanol-water(20:1)): Crystal form A
Result (crystal form) ([2]; suspended in Ethyl acetate): Crystal form A
Result (crystal form) ([2]; suspended in Isopropanol): Crystal form A
Result (crystal form) ([2]; suspended in Isopropanol-water(20:1)): Crystal form A
Result (crystal form) ([2]; suspended in Tetrahydrofuran): Crystal form A
Stability in solvents (conclusion) ([2]; variety of solvents): stable
Average CFU of Mouse (bacterial load of thigh muscle tissue) ([3]; group 1: total daily dose 1600 mg/kg, single dose 60 mg/kg, q3h s.c.): 2.18E+06 CFU/Mouse
Average CFU of Mouse (bacterial load of thigh muscle tissue) ([3]; group 2: total daily dose 1600 mg/kg, single dose 400 mg/kg, q6h s.c.): 2.45E+06 CFU/Mouse
Average CFU of Mouse (bacterial load of thigh muscle tissue) ([3]; group 3: total daily dose 1600 mg/kg, single dose 800 mg/kg, q12h s.c.): 3.80E+08 CFU/Mouse
Average CFU of Mouse (bacterial load of thigh muscle tissue) ([3]; group 4: total daily dose 1600 mg/kg, single dose 1600 mg/kg, q24h s.c.): 9.02E+09 CFU/Mouse
Average CFU of Mouse (bacterial load of thigh muscle tissue) ([3]; group 5: total daily dose 480 mg/kg, single dose 60 mg/kg, q3h s.c.): 2.20E+06 CFU/Mouse
Average CFU of Mouse (bacterial load of thigh muscle tissue) ([3]; group 6: total daily dose 480 mg/kg, single dose 120 mg/kg, q6h s.c.): 2.18E+08 CFU/Mouse
Average CFU of Mouse (bacterial load of thigh muscle tissue) ([3]; group 7: total daily dose 480 mg/kg, single dose 240 mg/kg, q12h s.c.): 2.88E+09 CFU/Mouse
Average CFU of Mouse (bacterial load of thigh muscle tissue) ([3]; group 8: total daily dose 480 mg/kg, single dose 480 mg/kg, q24h s.c.): 8.73E+09 CFU/Mouse
Average CFU of Mouse (bacterial load of thigh muscle tissue) ([3]; group 9: total daily dose 160 mg/kg, single dose 20 mg/kg, q3h s.c.): 2.10E+06 CFU/Mouse
Average CFU of Mouse (bacterial load of thigh muscle tissue) ([3]; group 10: total daily dose 160 mg/kg, single dose 40 mg/kg, q6h s.c.): 4.67E+08 CFU/Mouse
Average CFU of Mouse (bacterial load of thigh muscle tissue) ([3]; group 11: total daily dose 160 mg/kg, single dose 80 mg/kg, q12h s.c.): 7.88E+09 CFU/Mouse
Average CFU of Mouse (bacterial load of thigh muscle tissue) ([3]; group 12: total daily dose 160 mg/kg, single dose 160 mg/kg, q24h s.c.): 1.22E+10 CFU/Mouse
Average CFU of Mouse (bacterial load of thigh muscle tissue) ([3]; group 13: total daily dose 48 mg/kg, single dose 6 mg/kg, q3h s.c.): 4.07E+06 CFU/Mouse
Average CFU of Mouse (bacterial load of thigh muscle tissue) ([3]; group 14: total daily dose 48 mg/kg, single dose 12 mg/kg, q6h s.c.): 1.57E+09 CFU/Mouse
Average CFU of Mouse (bacterial load of thigh muscle tissue) ([3]; group 15: total daily dose 48 mg/kg, single dose 24 mg/kg, q12h s.c.): 8.70E+09 CFU/Mouse
Average CFU of Mouse (bacterial load of thigh muscle tissue) ([3]; group 16: total daily dose 48 mg/kg, single dose 48 mg/kg, q24h s.c.): 1.32E+10 CFU/Mouse
Average CFU of Mouse (bacterial load of thigh muscle tissue) ([3]; group 17: total daily dose 16 mg/kg, single dose 2 mg/kg, q3h s.c.): 7.77E+07 CFU/Mouse
Average CFU of Mouse (bacterial load of thigh muscle tissue) ([3]; group 18: total daily dose 16 mg/kg, single dose 4 mg/kg, q6h s.c.): 2.92E+09 CFU/Mouse
Average CFU of Mouse (bacterial load of thigh muscle tissue) ([3]; group 19: total daily dose 16 mg/kg, single dose 8 mg/kg, q12h s.c.): 6.93E+09 CFU/Mouse
Average CFU of Mouse (bacterial load of thigh muscle tissue) ([3]; group 20: total daily dose 16 mg/kg, single dose 16 mg/kg, q24h s.c.): 1.44E+10 CFU/Mouse
Average CFU of Mouse (bacterial load of thigh muscle tissue) ([3]; group 21: total daily dose 4.8 mg/kg, single dose 0.6 mg/kg, q3h s.c.): 7.22E+08 CFU/Mouse
Average CFU of Mouse (bacterial load of thigh muscle tissue) ([3]; group 22: total daily dose 4.8 mg/kg, single dose 1.2 mg/kg, q6h s.c.): 4.55E+09 CFU/Mouse
Average CFU of Mouse (bacterial load of thigh muscle tissue) ([3]; group 23: total daily dose 4.8 mg/kg, single dose 2.4 mg/kg, q12h s.c.): 7.60E+09 CFU/Mouse
Average CFU of Mouse (bacterial load of thigh muscle tissue) ([3]; group 24: total daily dose 4.8 mg/kg, single dose 4.8 mg/kg, q24h s.c.): 1.27E+10 CFU/Mouse
Antibacterial effect in vivo (conclusion) ([3]; mouse thigh muscle infection, subcutaneous, 26 h after infection): significant antibacterial effect in vivo
Effect of shortening the administration interval (conclusion) ([3]; same daily dose, q3 h, q6 h, q12 h, q24 h): significantly improve the efficacy in vivo
Dose-effect relationship (conclusion) ([3]; total daily dose 4.8 to 1600 mg/kg): significant
Result of crystallization (exploration of other crystal forms) ([4]; EtOH:H2O = 10:1, first dissolved and then cooled down): No crystal was obtained
Result of crystallization (exploration of other crystal forms) ([4]; EtOH:H2O = 20:1, first dissolved and then cooled down): No crystal was obtained
Result of crystallization (exploration of other crystal forms) ([4]; IPA:H2O = 10:1, first dissolved and then cooled down): No crystal was obtained
Result of crystallization (exploration of other crystal forms) ([4]; IPA:H2O = 20:1, first dissolved and then cooled down): No crystal was obtained
Result of crystallization (exploration of other crystal forms) ([4]; THF:H2O = 10:1, first dissolved at 40° C., cooled to 0~5° C.): No crystal was obtained
Result of crystallization (exploration of other crystal forms) ([4]; acetone:H2O = 20:1, first dissolved and then cooled down): No crystal was obtained
Other crystal forms obtained (conclusion) ([4]; dissolved in different aqueous systems and then crystallized): no other crystal forms were obtained
AUC(0-t) [5, 6]: 166 µM·h
C0 [5, 6]: 581 µM
clearance [5, 6]: 17.2 mL/min/kg
half-life [5, 6]: 18.7 min
Vd [5, 6]: 0.378 L/kg
AUC(0-t) [5, 7]: 467 µM·h
C0 [5, 7]: 1380 µM
clearance [5, 7]: 18.4 mL/min/kg
half-life [5, 7]: 21.7 min
Vd [5, 7]: 0.463 L/kg
Exposure versus dose (conclusion) ([5]; rats, intravenous): increases linearly
